The text below walks through data of patent US10882856B2 (BeiGene, Ltd., priority 2017, dated 2021).

Experiment [1] deals with T1, TDO (Homo sapiens, UniProt P48775).
T1 construct: His tag (C); made in house; host or cells: E. coli
Put plainly: TDO enzymatic assay. To be noted: read-out: Enzyme IC50 TDO. It counts as biochemical. The essentials:
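Recombinant C-terminally His-tagged TDO purified from E. coli (100 nM) was tested with 0.5 mM L-tryptophan (Km concentration). Otherwise the IDO1 enzymatic set-up was used: ascorbic acid, methylene blue, catalase, and potassium phosphate pH 7.5 with BSA, incubated 1.5 hours. N'-formylkynurenine absorbance was read continuously at 321 nm, and activity was taken as the slope. IC50 was calculated from remaining enzyme activity across increasing compound concentrations.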

The target in experiment [2] is T2, IDO1 (Homo sapiens, UniProt P14902). In words: Hela cell-based IDO1 assay. To be noted: Hela cells. The essentials:
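Kynurenine was measured at 480 nm in trichloroacetic acid-deproteinised supernatant after adding 2% 4-(dimethylamino)benzaldehyde. This supernatant came from HeLa cells seeded at 8000 per well in 96-well plates in phenol red-free DMEM with 10% FBS and, from 4 hours after seeding, exposed for 48 hours at 37 °C, 5% CO2 to DMSO-diluted compound dilutions, IFN-γ (final 100 ng/mL) and 0.4 mM L-Trp. The resulting data were fitted with a four-parameter logistic model in XLfit. Potency was taken from those fits.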

For experiment [3], the target named is T2, IDO1. In words: IDO1 enzymatic assay. It counts as biochemical. Also on record: His tag (N); made in house; host or cells: E. coli. Particulars: read-out: Enzyme IC50 IDO1. The essentials: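 Recombinant N-terminally His-tagged IDO1 purified from E. coli (50 nM) was incubated with compound or DMSO and 1.3 mM D-tryptophan, 5 mM L-ascorbic acid, methylene blue and 0.4 mg/mL catalase. The buffer was 50 mM potassium phosphate pH 7.5 with 0.1% BSA, at 24 °C for 1.5 hours. N'-formylkynurenine formation was then read continuously at 321 nm for 1 hour, and activity was taken as the slope. IC50 was calculated from remaining enzyme activity across increasing compound concentrations.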

The target of experiment [4] is T3, cellular TDO2 in HEK293-TDO2 cells (Homo sapiens, UniProt P48775).
T3 construct: expressed in transfected cells; host or cells: HEK293 (ATCC), stably transfected
In words: 293-TDO2 cell-based assay (Kyn colorimetric). To be noted: 48 hours of incubation. The essentials: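 Kyn formed from L-Trp was read colorimetrically at 480 nm (TCA deproteinisation, then 2% 4-(dimethylamino)benzaldehyde). Compounds were added to 293-TDO2 cells 4 h post-seeding and left 48 h at 37° C. A four-parameter logistic model gave IC50 values.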

T2 sequence (P14902 whole entry): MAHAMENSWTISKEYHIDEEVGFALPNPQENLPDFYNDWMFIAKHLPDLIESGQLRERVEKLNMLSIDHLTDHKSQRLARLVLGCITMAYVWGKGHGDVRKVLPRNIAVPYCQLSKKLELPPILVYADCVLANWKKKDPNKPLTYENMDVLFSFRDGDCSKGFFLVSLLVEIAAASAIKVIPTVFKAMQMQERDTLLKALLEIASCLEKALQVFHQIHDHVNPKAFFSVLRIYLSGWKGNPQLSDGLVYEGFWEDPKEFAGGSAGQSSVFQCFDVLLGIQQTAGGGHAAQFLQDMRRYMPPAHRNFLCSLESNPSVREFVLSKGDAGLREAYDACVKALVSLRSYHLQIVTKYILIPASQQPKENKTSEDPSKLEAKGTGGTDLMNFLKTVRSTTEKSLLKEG
T1 sequence (P48775 whole entry): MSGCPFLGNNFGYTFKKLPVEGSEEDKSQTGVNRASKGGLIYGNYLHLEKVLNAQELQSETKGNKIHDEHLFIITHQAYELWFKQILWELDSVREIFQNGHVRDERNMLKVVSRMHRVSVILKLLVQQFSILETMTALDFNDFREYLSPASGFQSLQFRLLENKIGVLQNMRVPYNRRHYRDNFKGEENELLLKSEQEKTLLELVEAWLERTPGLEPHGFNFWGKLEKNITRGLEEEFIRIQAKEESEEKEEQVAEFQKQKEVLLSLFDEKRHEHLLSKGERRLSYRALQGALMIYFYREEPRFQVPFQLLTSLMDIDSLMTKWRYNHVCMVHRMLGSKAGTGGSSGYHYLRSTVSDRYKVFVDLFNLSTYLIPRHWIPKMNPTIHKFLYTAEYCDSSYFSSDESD
T3 sequence (P48775 whole entry): as above

Regarding `O[C@H](c1c(C2CC2)ccn2cncc12)[C@H]1CC[C@H](c2ccc(Cl)cc2)CC1` (single isomer, unassigned) [Example C102a], the values for the IC50 in experiment [1] and in experiment [3] were 16000 nM and 36 nM, respectively. Also, the EC50 in experiment [2] is 471 nM; in experiment [4] it was over 10000 nM.

As for `COCCOc1ccc([C@H]2CC[C@H]([C@H](O)c3c(C4CC4)ccn4cncc34)CC2)cc1` (single isomer, unassigned) [Example C103a], the results for the IC50 in experiment [1] and in experiment [3] were 10000 nM and 21 nM, respectively. Also, the EC50 in experiment [2] is 167 nM; in experiment [4], over 10000 nM.

With `Oc1ccc([C@H]2CC[C@H](C(O)c3c(C4CC4)ccn4cncc34)CC2)cc1` (single isomer, unassigned) [Example C104a], the results for the half-inhibitory concentration (IC50) in experiment [1] and in experiment [3] were 2500 nM and 18 nM, respectively. Further, the EC50 in experiment [2] was 50 nM; in experiment [4], over 10000 nM.

As to `O[C@H](c1c(C2CC2)ccn2cncc12)[C@H]1CC[C@H](c2ccc(OC(F)(F)F)cc2)CC1` (single isomer, unassigned) [Example C105a], the IC50 in experiment [1] amounted to 9100 nM; in experiment [3], 48 nM. Moreover, the concentration for a half-maximal effect (EC50) was 1140 nM in experiment [2] and over 10000 nM in experiment [4].

Consider `N#Cc1ccc([C@H]2CC[C@H](C(O)c3c(C4CC4)ccn4cncc34)CC2)cc1` (single isomer, unassigned) [Example C106a], for which the IC50 in experiment [1] came out at 5200 nM; in experiment [3] it was 20 nM. In addition, the concentration giving a half-maximal response (EC50) was 141 nM in experiment [2] and over 10000 nM in experiment [4].

`O[C@H](c1c(C2CC2)ccn2cncc12)[C@H]1CC[C@H](c2ccc(F)cc2)CC1` (single isomer, unassigned) [Example C107a]: the IC50 in experiment [1] is 6500 nM; in experiment [3] it was 31 nM. In addition, the EC50 in experiment [2] was 109 nM; in experiment [4], over 10000 nM.

As for `O[C@H](c1c(C2CC2)ccn2cncc12)[C@H]1CC[C@H](c2ccccc2F)CC1` (single isomer, unassigned) [Example C108a], the IC50 in experiment [1] was 5100 nM; in experiment [3] it was 28 nM. Moreover, the EC50 in experiment [2] is 112 nM; in experiment [4] it was over 10000 nM.

Consider `O[C@H](c1c(C2CC2)ccn2cncc12)[C@H]1CC[C@H](c2cccc(F)c2)CC1` (single isomer, unassigned) [Example C109a], for which the IC50 in experiment [1] is 8500 nM; in experiment [3] it was 43 nM. Further, the EC50 in experiment [2] was 49 nM; in experiment [4], over 10000 nM.

As for `Cc1ccc([C@H]2CC[C@H]([C@H](O)c3c(C4CC4)ccn4cncc34)CC2)cc1` (single isomer, unassigned) [Example C110a], the IC50 in experiment [1] was determined as 21000 nM; in experiment [3] it was 35 nM. For the same molecule, the EC50 is 283 nM in experiment [2] and over 10000 nM in experiment [4].

Take `Cc1cccc([C@H]2CC[C@H]([C@H](O)c3c(C4CC4)ccn4cncc34)CC2)c1` (single isomer, unassigned) [Example C111a]: the IC50 worked out at 8000 nM in experiment [1] and 28 nM in experiment [3]. For the same molecule, the values for the EC50 in experiment [2] and in experiment [4] were 131 nM and over 10000 nM, respectively.

In the case of `Cc1ccccc1[C@H]1CC[C@H]([C@H](O)c2c(C3CC3)ccn3cncc23)CC1` (single isomer, unassigned) [Example C112a], the 50% inhibitory concentration (IC50) came to 5100 nM in experiment [1] and 40 nM in experiment [3]. In addition, the concentration giving a half-maximal response (EC50) in experiment [2] is 183 nM; in experiment [4], over 10000 nM.

Take `COc1ccccc1[C@H]1CC[C@H]([C@H](O)c2c(C3CC3)ccn3cncc23)CC1` (single isomer, unassigned) [Example C113a]: the half-inhibitory concentration (IC50) in experiment [1] is 5700 nM; in experiment [3], 28 nM. Besides, the results for the EC50 in experiment [2] and in experiment [4] were 89 nM and over 10000 nM, respectively.

Take `COc1cccc([C@H]2CC[C@H]([C@H](O)c3c(C4CC4)ccn4cncc34)CC2)c1` (single isomer, unassigned) [Example C114a]: the IC50 was 8300 nM in experiment [1] and 27 nM in experiment [3]. For the same molecule, the figures for the EC50 in experiment [2] and in experiment [4] were 180 nM and over 10000 nM, respectively.

For the molecule `O[C@H](c1c(C2CC2)ccn2cncc12)[C@H]1CC[C@H](c2ccc(C(F)(F)F)cc2)CC1` (single isomer, unassigned) [Example C115a], the IC50 was determined as 11000 nM in experiment [1] and 67 nM in experiment [3]. Also, the EC50 was 2400 nM in experiment [2] and over 10000 nM in experiment [4].

For the molecule `O[C@H](c1c(C2CC2)ccn2cncc12)[C@H]1CC[C@H](c2ccccc2C(F)(F)F)CC1` (single isomer, unassigned) [Example C116a], the IC50 in experiment [1] is 6300 nM; in experiment [3] it was 77 nM. Moreover, the EC50 in experiment [2] is 500 nM; in experiment [4], over 10000 nM.

As to `O[C@H](c1c(C2CC2)ccn2cncc12)[C@H]1CC[C@H](c2ccc(OC3COC3)cc2)CC1` (single isomer, unassigned) [Example C117a], the values for the IC50 in experiment [1] and in experiment [3] were 3400 nM and 15 nM, respectively. The EC50 in experiment [2] is 131 nM; in experiment [4], over 10000 nM.

`O[C@H](c1c(C2CC2)ccn2cncc12)[C@H]1CC[C@H](c2ccc(OC3CCCC3)cc2)CC1` (single isomer, unassigned) [Example C118a]: the IC50 in experiment [1] is 6200 nM; in experiment [3] it was 63 nM. The EC50 in experiment [2] was 147 nM; in experiment [4] it was over 10000 nM.

For `OC(c1c(C2CC2)ccc2cncn12)C1CCN(c2cccc3ncncc23)CC1` (centres unmarked) [Example D180, (6-cyclopropylimidazo[1,5-a]pyridin-5-yl)(1-(quinazolin-5-yl)piperidin-4-yl)methanol], the EC50 was 40 nM in experiment [2] and over 10000 nM in experiment [4]. Moreover, the IC50 in experiment [3] amounted to 30 nM.

For `OC(c1c(C2CC2)ccc2cncn12)C1CCN(c2ccc3ncncc3c2)CC1` (centres unmarked) [Example D181, (6-cyclopropylimidazo[1,5-a]pyridin-5-yl)(1-(quinazolin-6-yl)piperidin-4-yl)methanol], the EC50 in experiment [2] is 1020 nM; in experiment [4] it was over 10000 nM. For the same molecule, in experiment [3], the IC50 amounted to 31 nM.

Take `OC(c1cc(Cl)cc2cncn12)C1CCC(c2ccc(Cl)cc2)CC1` (centres unmarked) [Example E101, (7-chloroimidazo[1,5-a]pyridin-5-yl)(4-(4-chlorophenyl)cyclohexyl)methanol]: the EC50 in experiment [2] is 6310 nM; in experiment [4], over 10000 nM. For the same molecule, in experiment [3], the concentration for half-maximal inhibition (IC50) was 62 nM.

Consider `OC(c1cc(C2CC2)cc2cncn12)C1CCC(c2ccc(Cl)cc2)CC1` (centres unmarked) [Example E102, (4-(4-chlorophenyl)cyclohexyl)(7-cyclopropylimidazo[1,5-a]pyridin-5-yl)methanol], for which the results for the EC50 in experiment [2] and in experiment [4] were 4840 nM and over 10000 nM, respectively. For the same molecule, in experiment [3], the IC50 was determined as 270 nM.

For `OC(c1cc(Cl)cc2cncn12)C1CCC(c2cccc3ccccc23)CC1` (centres unmarked) [Example E103, (7-chloroimidazo[1,5-a]pyridin-5-yl)(4-(naphthalen-1-yl)cyclohexyl)methanol], the EC50 is 2320 nM in experiment [2] and over 10000 nM in experiment [4]. The IC50 in experiment [3] stood at 43 nM.

Regarding `OC(c1cc(Cl)cc2cncn12)C1CCC(c2ccc3ccccc3c2)CC1` (centres unmarked) [Example E104, (7-chloroimidazo[1,5-a]pyridin-5-yl)(4-(naphthalen-2-yl)cyclohexyl)methanol], the EC50 was 5440 nM in experiment [2] and over 10000 nM in experiment [4]. In experiment [3], the IC50 is 80 nM.

By IC50 is commonly meant the concentration that gives 50% inhibition. As usually defined, the EC50 is the concentration giving half of the maximal effect. Higher therefore signals a less potent agent.
